Measured values from the supplement of paper PMC10307832.

What was measured:
Assay in all cases: relative viability (nuclei count vs DMSO), 5 days (fraction); higher = more cells survive
Mirin + Pictilisib = compound: N=C1NC(=O)/C(=C/c2ccc(O)cc2)S1 [Mirin] + CS(=O)(=O)N1CCN(Cc2cc3nc(-c4cccc5[nH]ncc45)nc(N4CCOCC4)c3s2)CC1 [Pictilisib] (partner 1 µM)
How it was run: (§1)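 Relative viability equals treated-well nuclei counts divided by vehicle-well nuclei counts. Counts came from 4× images of lung cancer cell lines grown in 1536-well plates for 5 days after pin-tool dosing on the day after seeding. Dosing used one drug alone or a fixed anchor-drug dose plus five library-drug doses (not always all listed) in √10 steps, and values are medians of duplicate plates.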

Mirin + Olaparib = compound: N=C1NC(=O)/C(=C/c2ccc(O)cc2)S1 [Mirin] + O=C(c1cc(Cc2n[nH]c(=O)c3ccccc23)ccc1F)N1CCN(C(=O)C2CC2)CC1 [Olaparib] (partner 8 µM)
How it was run: as §1

[1] = compound: CCn1c(-c2nonc2N)nc2cnc(Oc3cccc(NC(=O)c4ccc(OCCN5CCOCC5)cc4)c3)cc21 + O=C(c1cc(Cc2n[nH]c(=O)c3ccccc23)ccc1F)N1CCN(C(=O)C2CC2)CC1 [Olaparib] (partner 8 µM)
How it was run: as §1

[2] = compound: CCn1c(-c2nonc2N)nc2cnc(Oc3cccc(NC(=O)c4ccc(OCCN5CCOCC5)cc4)c3)cc21 + COc1cccc2cc(-c3nc([C@H]4CC[C@H](C(=O)O)CC4)n4ncnc(N)c34)[nH]c12 [OSI-027] (partner 0.5 µM)
How it was run: as §1

Row | Cell Line | relative viability (Mirin + Pictilisib; first compound 0.25 µM) | relative viability (Mirin + Pictilisib; first compound 0.7906 µM) | relative viability (Mirin + Pictilisib; first compound 2.5 µM) | relative viability (Mirin + Pictilisib; first compound 7.906 µM) | relative viability (Mirin + Pictilisib; first compound 25 µM) | relative viability (Mirin + Olaparib; first compound 0.25 µM) | relative viability (Mirin + Olaparib; first compound 0.7906 µM) | relative viability (Mirin + Olaparib; first compound 2.5 µM) | relative viability (Mirin + Olaparib; first compound 7.906 µM) | relative viability (Mirin + Olaparib; first compound 25 µM) | relative viability ([1]; first compound 0.04 µM) | relative viability ([1]; first compound 0.1265 µM) | relative viability ([1]; first compound 0.4 µM) | relative viability ([1]; first compound 1.265 µM) | relative viability ([1]; first compound 4 µM) | relative viability ([2]; first compound 0.04 µM) | relative viability ([2]; first compound 0.1265 µM) | relative viability ([2]; first compound 0.4 µM) | relative viability ([2]; first compound 1.265 µM) | relative viability ([2]; first compound 4 µM)
1 | 201T | 0.704 | 0.668 | 0.614 | 0.753 | 0.67 | 0.877 | 0.888 | 0.886 | 0.902 | 1.03 | 0.859 | 0.933 | 0.817 | 0.812 | 0.769 | 0.857 | 0.773 | 0.38 | 0.674 | 0.806
2 | PC-3 [JPC-3] | 0.678 | 0.73 | 0.731 | 0.702 | 0.706 | 1.14 | 1.23 | 1.19 | 1.21 | 1.23 | 1.13 | 1.14 | 0.966 | 0.746 | 0.861 | 0.838 | 0.802 | 0.701 | 0.773 | 0.656
3 | NCI-H1650 | 0.576 | 0.494 | 0.592 | 0.447 | 0.385 | 0.789 | 0.929 | 0.817 | 0.755 | 0.732 | 0.74 | 0.849 | 0.744 | 0.696 | 0.715 | 0.666 | 0.678 | 0.551 | 0.535 | 0.656
4 | NCI-H838 | 0.465 | 0.398 | 0.562 | 0.54 | 0.421 | 0.788 | 0.811 | 0.829 | 0.749 | 0.529 | 0.405 | 0.347 | 0.383 | 0.221 | 0.222 | 0.338 | 0.294 | 0.228 | 0.242 | 0.194
5 | NCI-H1792 | 0.269 | 0.303 | 0.294 | 0.262 | 0.259 | 0.533 | 0.392 | 0.484 | 0.383 | 0.495 | 0.449 | 0.345 | 0.338 | 0.244 | 0.37 | 0.862 | 0.513 | – | 0.596 | 0.7
6 | COR-L23 | 0.8 | 0.721 | 0.854 | 0.738 | 0.687 | 0.395 | 0.319 | 0.313 | 0.365 | 0.319 | 0.346 | 0.301 | 0.269 | 0.145 | 0.124 | 0.686 | 0.54 | 0.326 | 0.207 | 0.144
7 | ChaGo-K-1 | 0.667 | – | 0.713 | 0.571 | 0.693 | 0.415 | 0.363 | 0.43 | 0.381 | 0.253 | 0.512 | 0.443 | 0.443 | 0.399 | 0.387 | 0.679 | 0.521 | 0.313 | 0.393 | 0.307
8 | HOP-62 | 0.554 | 0.33 | 0.764 | – | 0.496 | 0.548 | 0.409 | 0.219 | 0.381 | 0.519 | 0.679 | 0.379 | 0.372 | – | 0.351 | 0.998 | 0.734 | 0.56 | 0.422 | 0.469
